{"source": "patent US20230310542A1", "about": "“EPIGENETIC MODIFIERS TO TREAT RETINAL DEGENERATIONS” (priority 2022, published 2023)", "key": {"[1]": {"test_system": "rd10 mice retina", "experiment": "RNA-seq of PN24 retina, rd10 mice", "type": "in vivo, mouse", "procedure": "RNA was extracted from PN24 retina of WT and rd10 animals treated with saline or GSK from PN9 till PN24. RNA integrity number (RIN) was measured using BioAnalyzer (Agilent Technologies) RNA 6000 Nano Kit to confirm RIN above 7 for each sample. The cDNA libraries were prepared using the Illumina® Stranded mRNA Prep, Ligation kit (Illumina) as per the manufacturer's instructions. Briefly, polyA RNA was purified from 200 ng of total RNA using oligo (dT) beads. The extracted mRNA fraction was subjected to fragmentation, reverse transcription, end repair, 3′— end adenylation, and adaptor ligation, followed by PCR amplification and SPRI bead purification (Beckman Coulter). The unique dual index sequences (IDT® for Illumina® RNA UD Indexes Set A, Ligation, Illumina) were incorporated in the adaptors for multiplexed high-throughput sequencing. The final product was assessed for its size distribution and concentration using BioAnalyzer High Sensitivity DNA Kit (Agilent Technologies). The libraries were pooled and diluted to 3 nM using 10 mM Tris-HCl, pH 8.5, and then denatured using the Illumina protocol. The denatured libraries were loaded onto an S1 flow cell on an Illumina NovaSeq 6000 (Illumina) and run for 2×53 cycles according to the manufacturer's instructions. De-multiplexed and adapter-trimmed sequencing reads were generated using Illumina bcl2fastq (released version 2.20.0) allowing no mismatches in the index read. BBDuk was used to trim/filter low-quality sequences using “qtrim=lr trimq=10 maq=10” option. Next, alignment of the filtered reads to the mouse reference genome (mouse Ensembl release 67 (GRCm37/NCBIM37/mm9)) was done using HISAT2 (version 2.1.0) applying --no-mixed and --no-discordant options. Read counts were calculated using HTSeq by supplementing Ensembl gene annotation (release 67: “Mus_musculus.Ensembl.NCBIM37.67.gtf”). The edgeR R package was used to fit the read counts to the negative binomial model along with the generalized linear model (GLM) and differentially expressed genes were determined by the likelihood ratio test method implemented in the edgeR. […] The ggplot2 R package was used for generating heatmaps. Raw counts and differential expression analysis generated during this study are available at GEO Submission GSE169527.\nThe Database for Annotation, Visualization, and Integrated Discovery (DAVID) was used for GO functional analysis."}, "[2]": {"test_system": "WT mice retina", "experiment": "RNA-seq of PN24 retina, WT mice", "type": "in vivo, mouse", "details": "GSK PN9 till PN24 vs saline; FDR<0.05, fold change >2 or <0.5", "procedure": "RNA was extracted from PN24 retina of WT and rd10 animals treated with saline or GSK from PN9 till PN24. RNA integrity number (RIN) was measured using BioAnalyzer (Agilent Technologies) RNA 6000 Nano Kit to confirm RIN above 7 for each sample. The cDNA libraries were prepared using the Illumina® Stranded mRNA Prep, Ligation kit (Illumina) as per the manufacturer's instructions. Briefly, polyA RNA was purified from 200 ng of total RNA using oligo (dT) beads. The extracted mRNA fraction was subjected to fragmentation, reverse transcription, end repair, 3′— end adenylation, and adaptor ligation, followed by PCR amplification and SPRI bead purification (Beckman Coulter). […] The final product was assessed for its size distribution and concentration using BioAnalyzer High Sensitivity DNA Kit (Agilent Technologies). […] De-multiplexed and adapter-trimmed sequencing reads were generated using Illumina bcl2fastq (released version 2.20.0) allowing no mismatches in the index read. […] Next, alignment of the filtered reads to the mouse reference genome (mouse Ensembl release 67 (GRCm37/NCBIM37/mm9)) was done using HISAT2 (version 2.1.0) applying --no-mixed and --no-discordant options. Read counts were calculated using HTSeq by supplementing Ensembl gene annotation (release 67: “Mus_musculus.Ensembl.NCBIM37.67.gtf”). […]"}, "[3]": {"details": "GSK PN9 till PN24 vs saline, FDR<0.05, fold change >2 or <0.5"}}}
{"smiles": "O=C(O)c1ccc(CN2CCC(CN[C@@H]3C[C@H]3c3ccccc3)CC2)cc1", "note": "[GSK, GSK2879552]", "values": [{"measurement": "number of genes downregulated", "setting": "[1]; [3]", "value": 369, "unit": "genes"}, {"measurement": "number of genes upregulated", "setting": "[1]; [3]", "value": 719, "unit": "genes"}, {"measurement": "genes simultaneously upregulated in rd10 and WT mice retina", "setting": "[1]; GSK, p<0.05, fold change >1.75 or <0.8", "value": "approximately 150 genes"}, {"measurement": "expression of genes specific for rod photoreceptors", "setting": "[1]; rd10+GSK retina", "value": "returned to normal expression levels"}, {"measurement": "IPA canonical pathways, upregulated", "setting": "[1]; rd10+GSK vs rd10", "value": "major upregulated pathway is the phototransduction pathway"}, {"measurement": "IPA canonical pathways, down regulated", "setting": "[1]; rd10+GSK vs rd10, next 4 most important pathways", "value": "down regulated pathways were all related to neuroinflammation"}, {"measurement": "expression of resident microglia markers", "setting": "[1]; rd10+GSK, Atp6v0d2, Mcoln3, Cd5l, Ctsd, C1qa, Fcrls, Hexb, Gpr34, Junb, Pclaf, Birc5", "value": "went back to normal levels of expression"}, {"measurement": "expression of markers of infiltrating immune cells", "setting": "[1]; rd10+GSK, H2-Aa, cd74, H2-Ab1, H2-Eb1, Cx3cr1 and others", "value": "returned to normal levels of expression"}, {"measurement": "expression of amacrine cell markers Clrn1 and Efemp1", "setting": "[1]; rd10 under GSK inhibition", "value": "down-regulated"}, {"measurement": "expression of cell death genes Capn9, Casp1, 12, AifI", "setting": "[1]; rd10 under GSK inhibition", "value": "downregulated"}, {"measurement": "expression of Gfap", "setting": "[1]; rd10 under GSK inhibition, did not reach threshold conditions", "value": "decreased"}, {"measurement": "number of genes downregulated", "setting": "[2]", "value": 13, "unit": "genes"}, {"measurement": "number of genes upregulated", "setting": "[2]", "value": 77, "unit": "genes"}]}
